This is an account of results in patent US20120121540A1 (priority 2007, published 2012).

The test can be described thus: HCV replicon assay (luciferase reporter, ET cell line). Format: cell-based. The note with it: Hepatitis C virus, HCV replicon luciferase activity in ET cells. In outline: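 ET cells carry a stable luciferase-ubiquitin-neo/NS3-5B subgenomic HCV replicon with adaptive mutations. Compounds (0.1 nM to […], 0.5% DMSO) were added 24 h after plating, and luciferase was read 48-72 h later. EC50 came from 10-point 2-fold dilutions fitted to a Hill equation; TC50 was measured in parallel by WST-1.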
(In general: Replicon systems follow genome replication, usually without infectious particles.)

Each structure is given as a SMILES string.

Regarding `O=C(c1nc2c(C(F)(F)F)cc(-c3cn[nH]c3)cn2c1Br)N1CC=C(c2ccoc2)C1` [Compound 436, [3-Bromo-6-(1H-pyrazol-4-yl)-8-trifluoromethyl-imidazo[1,2-a]pyridin-2-yl]-(3-furan-3-yl-2,5-dihydro-pyrrol-1-yl)-methanone], 10 µM produced 98% inhibition. As for `O=C(c1nc2c(C(F)(F)F)cc(-c3cn[nH]c3)cn2c1Br)N1CC=C(c2cccc(F)c2)C1` [Compound 437, [3-Bromo-6-(1H-pyrazol-4-yl)-8-trifluoromethyl-imidazo[1,2-a]pyridin-2-yl]-[3-(3-fluoro-phenyl)-2,5-dihydro-pyrrol-1-yl]-methanone], the figure is 96.9%; as for `O=C(c1nc2c(C(F)(F)F)cc(-c3cn[nH]c3)cn2c1Br)N1CC=C(c2ccc(F)cc2)C1` [Compound 438, [3-Bromo-6-(1H-pyrazol-4-yl)-8-trifluoromethyl-imidazo[1,2-a]pyridin-2-yl]-[3-(4-fluoro-phenyl)-2,5-dihydro-pyrrol-1-yl]-methanone], 97.8%; as for `O=C(c1nc2c(C(F)(F)F)cc(-c3cn[nH]c3)cn2c1Cl)N1CC=C(c2nccs2)C1` [Compound 439, [3-Chloro-6-(1H-pyrazol-4-yl)-8-trifluoromethyl-imidazo[1,2-a]pyridin-2-yl]-(3-thiazol-2-yl-2,5-dihydro-pyrrol-1-yl)-methanone], 99.2%.

For the molecule `O=C(c1cn2cc(-c3cn[nH]c3)cc(C(F)(F)F)c2n1)N1CC=C(c2nccs2)C1` [Compound 440, [6-(1H-Pyrazol-4-yl)-8-trifluoromethyl-imidazo[1,2-a]pyridin-2-yl]-(3-thiazol-2-yl-2,5-dihydro-pyrrol-1-yl)-methanone], testing at 10 µM gave an inhibition of 98.9%. As for `O=C(c1nc2c(C(F)(F)F)cc(-c3cn[nH]c3)cn2c1Cl)N1CCC(c2cccs2)C1` (stereo not drawn) [Compound 441, [3-Chloro-6-(1H-pyrazol-4-yl)-8-trifluoromethyl-imidazo[1,2-a]pyridin-2-yl]-(3-thiophen-2-yl-pyrrolidin-1-yl)-methanone], at 10 µM the inhibition was 97.6%.

Molecule `O=C(c1nc2c(C(F)(F)F)cc(-c3cn[nH]c3)cn2c1Br)N1CC=C(c2cccs2)C1` [Compound 442, [3-Bromo-6-(1H-pyrazol-4-yl)-8-trifluoromethyl-imidazo[1,2-a]pyridine-2-yl]-(3-thiophen-2-yl-2.5-dihydro-pyrrol-1-yl)-methanone] registered an inhibition at 10 µM of 99.5%. The figure for `O=C(c1nc2c(C(F)(F)F)cc(-c3cn[nH]c3)cn2c1Cl)N1CC=C(c2cccs2)C1` [Compound 443, [3-Chloro-6-(1H-pyrozol-4-yl)-8-(trifluoromethyl)imidazo[1,2-a]pyridine-2-yl][3-(thiophen-2-yl)-2,5-dihydro-1H-pyrrol-1-yl]methanone] is 99.3%; for `O=C(c1nc2c(C(F)(F)F)cc(-c3cn[nH]c3)cn2c1Cl)N1CC=C(c2ccco2)C1` [Compound 444, [3-Chloro-6-(1H-pyrazol-4-yl)-8-(trifluoromethyl)imidazo[1,2-a]pyridin-2-yl][3-(furan-2-yl)-2,5-dihydro-1H-pyrrol-1-yl]methanone] it is 98%.

As for `O=C(c1nc2c(C(F)(F)F)cc(-c3cn[nH]c3)cn2c1Cl)N1CC=C(c2cscn2)C1` [Compound 445, [3-Chloro-6-(1H-pyrazol-4-yl)-8-(trifluoromethyl)imidazol[1,2-a]pyridine-2-yl][3-(1,3-thiazol-4-yl)-2,5-dihydro-1H-pyrrol-1-yl]methanone], the inhibition at 10 µM is 93.9%. As for `O=C(c1nc2c(C(F)(F)F)cc(-c3ccoc3)cn2c1Br)N1CCC(c2cccc(F)c2)C1` (stereo not drawn) [Compound 446, (3-Bromo-6-furan-3-yl-8-trifluoromethyl-imidazo[1,2-a]pyridin-2-yl)-(3-(3-fluoro-phenyl)-pyrrolidin-1-yl)-methanone], the inhibition at 10 µM is 95.8%. With `O=C(c1nc2c(C(F)(F)F)cc(-c3cn[nH]c3)cn2c1Br)N1CCC(c2cccc(F)c2)C1` (stereo not drawn) [Compound 447, (3-Bromo-6-(1H-pyrazol-4-yl)-8-trifluoromethyl-imidazo[1,2-a]pyridin-2-yl)-(3-(3-fluoro-phenyl)-pyrrolidin-1-yl)-methanone], the inhibition at 10 µM was found to be 92.8%. In turn, `O=C(c1nc2c(C(F)(F)F)cc(-c3ccoc3)cn2c1Br)N1CCC(c2ccccc2F)C1` (stereo not drawn) [Compound 448] gave an inhibition at 10 µM of 99.2%. As for `O=C(c1nc2c(C(F)(F)F)cc(-c3cn[nH]c3)cn2c1Br)N1CCC(c2ccccc2F)C1` (stereo not drawn) [Compound 449, (3-Bromo-6-(1H-pyrazol-4-yl)-8-trifluoromethyl-imidazo[1,2-a]pyridin-2-yl)-(3-(2-fluoro-phenyl)-pyrrolidin-1-yl)-methanone], the figure is 97.4%; as for `N#Cc1cccc(C2CCN(C(=O)c3nc4c(C(F)(F)F)cc(-c5ccoc5)cn4c3Cl)C2)c1` (stereo not drawn) [Compound 450, 3-(1-(3-Chloro-6-furan-3-yl-8-trifluoromethyl-imidazo[1,2-a]pyridine-2-carbonyl)-pyrrolidin-3-yl)-benzonitrile], 82.5%. Take `COc1cccc(C2CCN(C(=O)c3nc4c(C(F)(F)F)cc(-c5ccoc5)cn4c3Cl)C2)c1` (stereo not drawn) [Compound 451, (3-Chloro-6-furan-3-yl-8-trifluoromethyl-imidaz [1,2-a]pyridin-2-yl)-[3-(3-methoxy-phenyl)-pyrrolidin-1-yl]-methanone]: at 10 µM the inhibition was 73.5%.

In the case of `COC(=O)c1cccc(C2CCN(C(=O)c3nc4c(C(F)(F)F)cc(-c5ccoc5)cn4c3Cl)C2)c1` (stereo not drawn) [Compound 452, 3-(1-(3-Chloro-6-furan-3-yl-8-trifluoromethyl-imidazo[1,2-a]pyridine-2-carbonyl)-pyrrolidin-3-yl)-benzoic acid methyl ester], at 10 µM the inhibition was 87.6%. `O=C(c1nc2c(C(F)(F)F)cc(-c3ccoc3)cn2c1Cl)N1CCC(c2cccnc2)C1` (stereo not drawn) [Compound 453, (3-Chloro-6-furan-3-yl-8-trifluoromethyl-imidazo[1,2-a]pyridin-2-yl)-(3-pyridin-3-yl-pyrrolidin-1-yl)-methanone] came in with an inhibition at 10 µM of 97.6%. With `O=C(c1nc2c(C(F)(F)F)cc(-c3ccoc3)cn2c1Cl)N1CCC(c2ccncc2)C1` (stereo not drawn) [Compound 454, (3-Chloro-6-furan-3-yl-8-trifluoromethyl-imidazo[1,2-a]pyridin-2-yl)-(3-pyridin-4-yl-pyrrolidin-1-yl)-methanone], the inhibition at 10 µM turned out to be 96.1%. As for `O=C(c1nc2c(C(F)(F)F)cc(-c3ccoc3)cn2c1Cl)N1CCC(c2cccc(Cl)c2)C1` (stereo not drawn) [Compound 460, (3-Chloro-6-furan-3-yl-8-trifluoromethyl-imidazo[1,2-a]pyridin-2-yl)-[3-(3-chloro-phenyl)-pyrrolidin-1-yl]-methanone], the figure is 88%; as for `O=C(c1nc2c(C(F)(F)F)cc(-c3cn[nH]c3)cn2c1Br)N1CCC(c2ccccc2)C1` (stereo not drawn) [Compound 461, (3-Bromo-6-(1H-pyrazol-4-yl)-8-trifluoromethyl-imidazo[1,2-a]pyridin-2-yl)-(3-phenyl-pyrrolidin-1-yl)-methanone], 94.3%; as for `Nc1cccc(C2CCN(C(=O)c3nc4c(C(F)(F)F)cc(-c5ccoc5)cn4c3Cl)C2)c1` (stereo not drawn) [Compound 462, [3-(3-Amino-phenyl)-pyrrolidin-1-yl]-(3-chloro-6-furan-3-yl-8-trifluoromethyl-imidaz [1,2-a]pyridin-2-yl)-methanone], 86.5%. The figure for `COc1ccccc1C1CCN(C(=O)c2nc3c(C(F)(F)F)cc(-c4ccoc4)cn3c2Cl)C1` (stereo not drawn) [Compound 463, (3-Chloro-6-furan-3-yl-8-trifluoromethyl-imidaz [1,2-a]pyridin-2-yl)-[3-(2-methoxy-phenyl)-pyrrolidin-1-yl]-methanone] is 80.6%. Turning to `O=C(c1nc2c(C(F)(F)F)cc(-c3cn[nH]c3)cn2c1Cl)N1CCC(c2ccccc2)C1` (stereo not drawn) [Compound 464, [3-Chloro-6-(1H-pyrazol-4-yl)-8-trifluoromethyl-imidazo[1,2-a]pyridin-2-yl]-(3-phenyl-pyrrolidin-1-yl)-methanone], 10 µM produced 93.7% inhibition. Molecule `O=C(c1nc2c(C(F)(F)F)cc(-c3cn[nH]c3)cn2c1Cl)N1CC[C@@H](c2ccccc2)C1` [Compound 465, [3-Chloro-6-(1H-pyrazol-4-yl)-8-trifluoromethyl-imidazo[1,2-a]pyridin-2-yl]-(3-(S)-phenyl-pyrrolidin-1-yl)-methanone] gave an inhibition at 10 µM of 97.9%. The figure for `O=C(c1nc2c(C(F)(F)F)cc(-c3cn[nH]c3)cn2c1Cl)N1CC[C@H](c2ccccc2)C1` [Compound 466, [3-Chloro-6-(1H-pyrazol-4-yl)-8-trifluoromethyl-imidazo[1,2-a]pyridin-2-yl]-(3-(R)-phenyl-pyrrolidin-1-yl)-methanone] is 90.4%. The figure for `O=C(c1nc2c(C(F)(F)F)cc(-c3ccoc3)cn2c1Cl)N1CCC(c2ccccn2)C1` (stereo not drawn) [Compound 468, (3-Chloro-6-furan-3-yl-8-trifluoromethyl-imidazo[1,2-a]pyridin-2-yl)-(3-pyridin-2-yl-pyrrolidin-1-yl)-methanone] is 93.9%; for `O=C(c1nc2c(C(F)(F)F)cc(-c3ccoc3)cn2c1Cl)N1N=C(c2ccoc2)CC1c1cc(Br)ccc1O` (stereo not drawn) [Compound 472, [5-(5-Bromo-2-hydroxy-phenyl)-3-furan-3-y-4,5-dihydro-pyrazol-1-yl]-(3-chloro-6-furan-3-yl-8-trifluoromethyl-imidazo[1,2-a]pyridin-2-yl)-methanone] it is 86.6%; for `Fc1cccc(C2CCN(Cc3cn4cc(-c5ccoc5)cc(C(F)(F)F)c4n3)C2)c1` (stereo not drawn) [Compound 474, 2-[3-(3-Fluoro-phenyl)-pyrroidin-1-ylmethyl]-6-furan-3-yl-8-trifluoromethyl-imidazo[1,2-a]pyridine] it is 0.7%. Turning to `Cc1noc(C2CCN(C(=O)c3nc4c(C(F)(F)F)cc(-c5ccoc5)cn4c3Cl)C2)n1` (stereo not drawn) [Compound 475, (3-Chloro-6-furan-3-yl-8-trifluoromethyl-imidaz[1,2-a]pyridin-2-yl)-[3-(3-methyl-[1,2,4]oxadiazol-5-yl)-pyrrolidin-1-yl]-methanone], at 10 µM the inhibition was 93%.

One may read the inhibition as the drop in the measured response relative to a control, in per cent. A low value points to little suppression.
